Reference: patent US12630521B2, “Arylamides and methods of use thereof” (Genzyme Corporation, priority 2019, dated 2026)

What was measured:
[1] = biological target: T1, CFTR (ΔF508 homozygous CF-HBE cells) (Homo sapiens, UniProt P13569, DEL508-508); test: TECC24 AUC fold over DMSO @10 uM: CFTR-mediated transepithelial chloride transport in primary CF-HBE cells; format: cell-based; details: 10 μM test agent, 48 hours, forskolin-stimulated IEQ AUC divided by vehicle AUC
T1 construct: Primary human bronchial epithelial cells from a ΔF508 homozygous CF donor; host or cells: primary CF-HBE cells (ΔF508/ΔF508 donor)
T1 sequence (P13569 with tags, fused parts or gaps DEL508-508): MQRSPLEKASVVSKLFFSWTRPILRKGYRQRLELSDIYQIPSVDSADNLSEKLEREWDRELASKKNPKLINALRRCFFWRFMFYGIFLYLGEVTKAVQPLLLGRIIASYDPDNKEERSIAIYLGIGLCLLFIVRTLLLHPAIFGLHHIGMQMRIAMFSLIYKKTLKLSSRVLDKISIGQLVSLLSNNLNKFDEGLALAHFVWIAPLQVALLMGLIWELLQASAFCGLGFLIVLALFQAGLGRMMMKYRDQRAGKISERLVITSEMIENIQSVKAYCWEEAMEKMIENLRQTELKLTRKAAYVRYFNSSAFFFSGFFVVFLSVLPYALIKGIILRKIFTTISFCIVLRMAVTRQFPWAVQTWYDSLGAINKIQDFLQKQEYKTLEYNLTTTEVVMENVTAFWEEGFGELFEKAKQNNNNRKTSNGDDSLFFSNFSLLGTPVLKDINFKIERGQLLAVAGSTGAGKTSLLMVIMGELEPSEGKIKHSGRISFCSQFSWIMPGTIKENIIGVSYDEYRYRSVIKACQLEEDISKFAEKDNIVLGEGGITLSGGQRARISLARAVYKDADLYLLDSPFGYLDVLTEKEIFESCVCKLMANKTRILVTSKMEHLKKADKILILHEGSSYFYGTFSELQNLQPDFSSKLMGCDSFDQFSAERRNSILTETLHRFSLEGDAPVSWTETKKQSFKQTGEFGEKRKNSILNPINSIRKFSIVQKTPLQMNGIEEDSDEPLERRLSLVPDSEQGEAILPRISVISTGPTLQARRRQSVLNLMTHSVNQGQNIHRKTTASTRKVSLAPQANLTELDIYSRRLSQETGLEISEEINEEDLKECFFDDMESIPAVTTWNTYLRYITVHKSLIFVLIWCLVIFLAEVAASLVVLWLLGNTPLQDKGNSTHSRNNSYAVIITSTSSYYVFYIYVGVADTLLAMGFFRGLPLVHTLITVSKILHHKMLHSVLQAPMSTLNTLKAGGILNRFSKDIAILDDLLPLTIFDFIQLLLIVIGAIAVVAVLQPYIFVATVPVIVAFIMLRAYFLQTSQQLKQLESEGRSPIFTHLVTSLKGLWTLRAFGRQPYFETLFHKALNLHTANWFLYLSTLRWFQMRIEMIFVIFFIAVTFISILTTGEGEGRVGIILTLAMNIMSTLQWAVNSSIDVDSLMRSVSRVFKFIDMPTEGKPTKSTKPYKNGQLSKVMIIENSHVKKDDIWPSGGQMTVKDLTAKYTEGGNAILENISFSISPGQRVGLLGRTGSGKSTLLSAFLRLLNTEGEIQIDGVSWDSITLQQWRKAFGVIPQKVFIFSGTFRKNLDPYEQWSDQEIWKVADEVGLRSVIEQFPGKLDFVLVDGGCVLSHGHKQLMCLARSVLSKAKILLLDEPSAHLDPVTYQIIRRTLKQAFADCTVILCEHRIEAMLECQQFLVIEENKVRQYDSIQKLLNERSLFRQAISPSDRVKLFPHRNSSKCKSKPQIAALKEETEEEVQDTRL
Experimental: Example 37: TECC24 AUC Fold Over DMSO @10 uM
The effects of a test agent on CFTR-mediated transepithelial chloride transport was measured using TECC24 recording analysis. Test agents were solubilized in DMSO. Solubilized test agents were mixed with incubation medium containing DMEM/F12, Ultroser G (2%; Crescent Chemical, catalog #67042), Hyclone Fetal Clone 11(2%; GE Healthcare, catalog #SH30066.02), bovine brain extract (0.25%; Lonza, catalog #CC-4098), insulin (2.5 μg/mL), IL-13 (10 ng/mL), hydrocortisone (20 nM), transferrin (2.5 μg/mL), triiodothyronine (500 nM), ethanolamine (250 nM), epinephrine (1.5 μM), phosphoethanolamine (250 nM), and retinoic acid (10 nM). Primary human bronchial epithelial cells from a ΔF508 homozygous CF donor (CF-HBE cells; from University of North Carolina Cystic Fibrosis Tissue Procurement Center), grown on Transwell HTS 24-well cell culture inserts (Costar, catalog #3378), were exposed to test agents or controls dissolved in incubation medium. The CF-HBE cells were cultured at 36.5° C. for 48 hours before TECC24 recordings were performed in the presence or absence of test agent, a positive control or vehicle (DMSO).
Following incubation, the transwell cell culture inserts containing the test agent or control-treated CF-HBE cells were loaded onto a TECC24 apparatus (TECC v7 or MTECC v2; EP Design) to record the transepithelial voltage (VT) and resistance (TEER) using 4 AgCl electrodes per well configured in current-clamp mode. The apical and basolateral bath solutions both contained (in mM) 140 NaCl, 5 KCl, 2 CaCl2, 1 MgCl2, 10 Hepes, and 10 glucose (adjusted to pH 7.4 with NaOH). To inhibit basal Na+ absorption, the ENaC inhibitor benzamil (10 μM) was added to the bath. Then, the adenylate cyclase activator, forskolin (10 μM), was added to the bath to activate CFTR. The forskolin-stimulated Cl— transport was halted by addition of CFTR inhibitor-172 (20 μM) to the bath at the end of the experiment to confirm specificity. VT and TEER recordings were digitally acquired at routine intervals using TECC or MTECC software (EP Design). VT and TEER were transformed into equivalent transepithelial Cl-current (IEQ), and the Area Under the Curve (AUC) of the IEQ time course between forskolin and CFTR inhibitor-172 addition is generated using Excel (Microsoft). Efficacy is expressed as the ratio of the test agent AUC divided by vehicle AUC. EC50s based on AUC are generated using the non-linear regression log(agonist) vs. response function in Prism software (GraphPad) with Hill Slope fixed=1.
If a test agent increased the AUC of the forskolin-stimulated IEQ relative to vehicle in CF-HBE cells, and this increase was inhibited by CFTR inhibitor-172, then the test agent was considered a CFTR corrector.

[2] = biological target: T2, human Cystic Fibrosis Transmembrane Conductance Regulator (CFTR) harboring the ΔF508 mutation (Homo sapiens, UniProt P13569, DEL508-508); test: H441 cell Emax and EC50: HRP-tagged ΔF508-CFTR cell-surface luminescence assay; format: cell-based; details: H441 cells expressing HRP-tagged ΔF508-CFTR, 27° C. for two nights; for EC50: 15-point dose-response; for Emax: NCI-H441, % of maximum VX809 signal
T2 construct: expressed in transfected cells; host or cells: H441 carcinoma cell line (G418 selection)
T2 sequence (P13569 with tags, fused parts or gaps DEL508-508): as above
From the text: Example 36: H441 Cell Emax and EC50
Two cell lines were used, the H441 carcinoma line and the CFHBE41o− (41o−) human bronchial epithelial line. Both cell lines expressed human Cystic Fibrosis Transmembrane Conductance Regulator (CFTR) harboring the ΔF508 mutation and with an in-frame fusion in CFTR extracellular loop 4 of Horse Radish Peroxidase (HRP) under control of the CMV promoter. In the presence of the HRP tag, ΔF508-CFTR transported to the cell surface was detectable upon addition of an HRP substrate (Luminata Forte). Both cell types were cultivated at 37° C. with CO2.
For both cell types, the medium was changed every other day unless the culture was at low % confluence. Cells were used for the assays at ˜75% confluence.
DMSO/Compound Dilutions Plate for 15-Point Dose-Response Testing
To a polypropylene (PP) 384-well plate, 15 μls DMSO was added to all wells in columns 1-22 and 24 (low Control). 15 μls of 260 μM VX809 (Lumacaftor), Selleckchem S1565, was added to column 23 wells (high Control). 15 μls of 10 mM test compound or VX809 (control) were added to wells of row A. Serial dilutions of Row A compound were performed 2×15 μls in rows A through 0 (15-point).
A PP, 384-well plate containing the appropriate cell culture medium was prepared for each assay plate with 100 μls per well. For the doxycycline-induced 41o− cells, doxycycline for both the assay plate and the medium dilution plate was added at 0.0005 mg/ml to the medium.
Both cell lines were plated for the assay at 30 μls per 384-well at 3.4×10^e5 cells per ml (˜10K cells/well). H441 cells were plated on opaque, white, Corning plate 3704. 41o− cells were plated on collagen-coated opaque, white, Corning plate 356665. For 41o− cells, doxycycline was added to the medium.
Compound Addition/Assay Incubation
Using FX (Beckman) protocol, 10 μls diluted compound or medium was added per well to the Assay Plate as: 2 μls DMSO Dilution plate well is diluted in 100 μls of the Medium Dilution Plate well, mixed, and 10 μls is transferred to the Assay Plate.
The final assay dilution series is 24.5, 12.3, 6.1, 3.1, 1.5, 0.8, 0.4, 0.2, 0.1, 0.05, 0.02, 0.01, 0.006, 0.003, 0.001 and 0 μM. The 41o− assay plates were incubated at 37° C. w/CO2, the H441 assay plates were incubated at 27° C. w/CO2, each overnight for two nights.
Assay Result Determination
After being brought to room temperature, the assay plate liquid was removed. 30 uls of Luminata Forte (Millipore ELLUF0100) was added per well and incubated at room temperature for 10 min. The plates were then read on a Topcount, protocol LumiMatti (CPS, luminescence). The data was analyzed for % of maximum, maximum VX809 signal, and EC50 using Pearl and SPEED tools.

SMILES | TECC24 AUC fold over DMSO [1] | EC50 [2] | Emax [2]
CC(C)CCc1cc2c(OCc3ccc(C(F)(F)F)cc3)c(C(=O)N[C@H](C(=O)O)C(C)(C)C)ccc2s1 [Compound 33-2, (2S)-2-[[2-isopentyl-4-[[4-(trifluoromethyl)phenyl]methoxy]benzothiophene-5-carbonyl]amino]-3,3-dimethyl-butanoic acid] | B (“B” refers to AUC @10 μM between 4-6) | 441 nM | 216%
CCc1cc2ccc(C(=O)N[C@H](C(=O)O)C(C)(C)CC)c(OCc3ccc(OC(F)(F)F)cc3)c2s1 [Compound 33-10, (2S)-2-(2-ethyl-7-((4-(trifluoromethoxy)benzyl)oxy)-benzo[b]thiophene-6-carboxamido)-3,3-dimethylpentanoic acid] | B (“B” refers to AUC @10 μM between 4-6) | 1250 nM | 216%
CC1(C(NC(=O)c2ccc3sccc3c2OCc2ccc(OC(F)(F)F)cc2)C(=O)O)CCCCC1 (centres unmarked) [Compound 32-6, 2-(1-methylcyclohexyl)-2-(4-((4-(trifluoromethoxy)benzyl)oxy)-benzo[b]thiophene-5-carboxamido)acetic acid] | C (“C” refers to AUC @10 μM < 4) | 3300 nM | 142%
CCC(C)(C)[C@H](NC(=O)c1ccc2cc(C(F)(F)F)sc2c1OCc1ccc(OC(F)(F)F)cc1)C(=O)O [Compound 33-29, (2S)-3,3-dimethyl-2-(7-((4-(trifluoromethoxy)benzyl)oxy)-2-(trifluoromethyl)-benzo[b]thiophene-6-carboxamido)pentanoic acid] | B (“B” refers to AUC @10 μM between 4-6) | 854 nM | 152%
CC(C)(C)[C@H](NC(=O)c1ccc2cc(Cl)sc2c1OCc1ccc(C(F)(F)F)cc1)C(=O)O [Compound 33-33, (2S)-2-(2-chloro-7-((4-(trifluoromethyl)benzyl)oxy)-benzo[b]thiophene-6-carboxamido)-3,3-dimethylbutanoic acid] | B (“B” refers to AUC @10 μM between 4-6) | 503 nM | 177%
CC(C)(C)[C@H](NC(=O)c1ccc2sccc2c1OCc1ccc(OC(F)F)cc1)C(=O)O [Compound 32-8, (2S)-2-(4-((4-(difluoromethoxy)benzyl)oxy)-benzo[b]thiophene-5-carboxamido)-3,3-dimethylbutanoic acid] |  | 4560 nM | 4.1%

Results, then the compound that gave them:

TECC24 AUC fold over DMSO [1] | EC50 [2] | Emax [2] | SMILES
A (“A” refers to AUC @10 μM > 6) |  |  | CCC(C)(C)[C@H](NC(=O)c1ccc2sc(C3CC3)nc2c1OCc1ccc(C(F)(F)F)cc1)C(=O)O [Compound 35-6, (2S)-2-[[2-cyclopropyl-4-[[4-(trifluoromethyl)phenyl]methoxy]-1,3-benzothiazole-5-carbonyl]amino]-3,3-dimethyl-pentanoic acid]
A (“A” refers to AUC @10 μM > 6) | 1250 nM | 133% | Cc1c(Cl)sc2ccc(C(=O)N[C@H](C(=O)O)C3(C)CCC3)c(OCc3ccc(C(F)(F)F)cc3)c12 [Compound 34-2, (S)-2-(2-chloro-3-methyl-4-((4-(trifluoromethyl)benzyl)oxy)-benzo[b]thiophene-5-carboxamido)-2-(1-methylcyclobutyl)acetic acid]
A (“A” refers to AUC @10 μM > 6) |  |  | CC(C)(C)[C@H](NC(=O)c1ccc2sc(C3(F)CC3)nc2c1OCc1ccc(C(F)(F)F)cc1)C(=O)O [Compound 35-8, (2S)-2-[[2-(1-fluorocyclopropyl)-4-[[4-(trifluoromethyl)phenyl]methoxy]-1,3-benzothiazole-5-carbonyl]amino]-3,3-dimethyl-butanoic acid]
A (“A” refers to AUC @10 μM > 6) | 662 nM | 286% | Cc1nc2c(OCc3ccc(C(F)(F)F)cc3)c(C(=O)N[C@H](C(=O)O)C(C)(C)C)ccc2s1 [Compound 35-3, (2S)-3,3-dimethyl-2-[[2-methyl-4-[[4-(trifluoromethyl)phenyl]methoxy]-1,3-benzothiazole-5-carbonyl]amino]butanoic acid]
A (“A” refers to AUC @10 μM > 6) |  |  | CC(C)(C)[C@H](NC(=O)c1ccc2sc(C3CCCC3)nc2c1OCc1ccc(C(F)(F)F)cc1)C(=O)O [Compound 35-7, (2S)-2-[[2-cyclopentyl-4-[[4-(trifluoromethyl)phenyl]methoxy]-1,3-benzothiazole-5-carbonyl]amino]-3,3-dimethyl-butanoic acid]
A (“A” refers to AUC @10 μM > 6) |  |  | CC(C)(C)[C@H](NC(=O)c1ccc2sc(C3CC3)nc2c1OCc1ccc(C(F)(F)F)cc1)C(=O)O [Compound 35-5, (2S)-2-[[2-cyclopropyl-4-[[4-(trifluoromethyl)phenyl]methoxy]-1,3-benzothiazole-5-carbonyl]amino]-3,3-dimethyl-butanoic acid]
A (“A” refers to AUC @10 μM > 6) |  |  | CC(C)(C)[C@H](NC(=O)c1ccc2sc(C3CCC3)nc2c1OCc1ccc(C(F)(F)F)cc1)C(=O)O [Compound 35-9, (2S)-2-[[2-cyclobutyl-4-[[4-(trifluoromethyl)phenyl]methoxy]-1,3-benzothiazole-5-carbonyl]amino]-3,3-dimethyl-butanoic acid]
A (“A” refers to AUC @10 μM > 6) |  |  | CC(C)(C)[C@H](NC(=O)c1ccc2sc(C(F)F)nc2c1OCc1ccc(C(F)(F)F)cc1)C(=O)O [Compound 35-4, (2S)-2-[[2-(difluoromethyl)-4-[[4-(trifluoromethyl)phenyl]methoxy]-1,3-benzothiazole-5-carbonyl]amino]-3,3-dimethyl-butanoic acid]
